Values of other authors as cited in patent US7662360B2, “Conjugates of N-hydroxypropymethacrylamide-methacrylate copolymer with nuclide activation agent and/or anti-cancer compounds” (Psimei Pharmaceuticals PLC, priority 2002, dated 2010).

Conditions: dose BPA 900-1200 mg/kg (30 mg/ml), CuTCPH 200 mg/kg (6 mg/ml), BSH dose not given

Q: With `N[C@@H](Cc1ccc(B(O)O)cc1)C(=O)O` [BPA, 4-dihydroxyborylphenylalanine] as the compound, how does the Absolute tumour concentration read?
A: The Absolute tumour concentration was 16.5 µg/g.

Q: For “sodium mnercaptoundecahydrododecaborate [BSH]”, which Absolute tumour concentration is on record?
A: Its Absolute tumour concentration is 6.9 µg/g.
